Source: patent publication US20040185509A1, “Eosinophil prostaglandin d2 receptor assays” (priority 2001, published 2004)
Entries after “also recorded” stand apart in the source; their conditions may differ.

How the values were obtained:
[1] = tested on: purified human eosinophils; assay: Eosinophil degranulation (release of ECP into the media, radioimmunoassay); type: cell-based; conditions: for release of ECP from eosinophils (result in words): FIG. 4: DK-PGD2 100 nM, BW245C 1 μM, FP and EP agonists 1 μM
Method: Purified eosinophils were resuspended at 3.0×10^6 cells per ml in RPMI 1640 medium supplemented with 0.5% (v/v) fetal bovine serum. Compounds to be tested were diluted 1:1000 to their final concentration in 300 μl of cells in a 1.5 ml centrifuge tube. The cells were immediately transferred to a 24-well plate. After an 1 hour incubation at 37° C. in a CO2 chamber, the cells were removed by centrifugation (4° C., 300× g, 10 minutes). Eosinophil cationic protein (ECP) in the supernatant was quantified by a double antibody radioimmunoassay (Pharmacia) following the manufacturer's protocol.
Degranulation of eosinophils was assayed by challenging freshly isolated eosinophils with PGD2 and measuring release of the eosinophil cationic protein (ECP) into the media using an ECP-specific radioimmunoassay.

[2] = tested on: purified human eosinophils; assay: In vitro eosinophil apoptosis assay (Annexin V/propidium iodide, flow cytometry); type: cell-based; conditions: for effect on eosinophil apoptosis / percentage of non-apoptotic eosinophils (result in words): 36 hours in culture, 1 μM, interleukin-5 at 1 ng/ml, FIG. 5
Method: Purified eosinophils were resuspended at 2.0×10^5 cells per ml in RPMI 1640 medium supplemented with 10% (v/v) fetal bovine serum, 2 mM glutamine, and 100 units of penicillin and streptomycin. Compounds to be tested were diluted 1:1000 to their final concentration and the cells were incubated at 37° C. in a CO2 chamber for 36 hours. The extent of apoptosis in the eosinophil population was evaluated using the TACS™ Annexin-V-FITC apoptosis detection kit (R&D systems). Non-apoptotic cells are not stained with either Annexin-V FITC or propidium iodide. Early apoptotic cells are stained with Annexin-V FITC but not propidium iodide (green fluorescence). Late apoptotic cells are stained with both Annexin-V FITC and propidium iodide (dual green and red fluorescence). Necrotic cells are only stained with propidium iodide (red fluoresecence). Labeled eosinophils were analyzed in a FACS Calibur system from Becton Dickinson.
The ability of PGD2 to modulate apoptosis in eosinophils was measured by quantifying the capacity of Annexin V to bind to phosphatidylserine on the outer membrane of apoptotic cells. (Koopman, et al., Blood 84:1415, 1994.) Necrotic cell death was determined by propidium iodide uptake. (Darzynkiewicz, et al., Cytometry 13:795, 1992.) Annexin V-FITC and propidium iodide staining of eosinophils was evaluated by FACS analysis.

[3] = tested on: purified human eosinophils; assay: Eosinophil morphology change by light microscopy; type: cell-based
Method: Purified eosinophils were incubated in RPMI 1640 media supplemented with 0.5% fetal bovine serum in the presence of the compound to be tested for 15 minutes in a 24-well dish. Light microscopy was performed with an inverted Axiovert 25 (Zeiss) and images were obtained with a 35 mm SLR camera (ARIA CONTAX, Kyocera corporation) using Kodak Elite Chrome 160T film.
Vehicle-treated eosinophils were spherical and only weakly adhered to the culture dish. […] This effect was seen on the majority of eosinophils from all donors analysed (n=20).

[4] = tested on: purified human eosinophils; assay: Eosinophil chemokinesis (chemotactic chamber without chemoattractant in the lower chamber); type: cell-based; conditions: for stimulation of eosinophil chemokinesis (result in words): FIG. 3: BW245C 1 μM, DK-PGD2 100 nM, PAF 100 nM, IL-5 1 ng/ml, PGE2, fluprostenol and latanoprost 1 μM; for increase in eosinophil chemokinesis: data not shown
Method: Purified eosinophils were resuspended at 3.0×10^6 cells per ml in RPMI 1640 medium supplemented with 0.5% (v/v) fetal bovine serum. Compounds to be tested were added from 1000× concentrated stock solutions to 100 μl of cells in a 1.5 ml centrifuge tube and incubated at room temperature for 5 minutes. 100 μl of treated cells were then added to the top half of a chemotactic chamber (6.5 mm Transwell, 3.0 μm polycarbonate membrane from Costar) and 600 μl of RPMI, supplemented with 0.5% (v/v) fetal bovine serum, was added to the bottom chamber. After a 2 hour incubation at 37° C. in a CO2 chamber, the top chamber was discarded and the number of cells that had migrated to the lower chamber was evaluated by counting the cells using an hematocytometer. For each condition tested, the number of migrating eosinophils in two chemotactic chambers was averaged.
Chemokinesis was measured by incubating eosinophils with PGD2 for 5 minutes prior to their loading in the upper chamber of a chemotactic unit lacking a chemoattractant in the lower chamber. PGD2 at a concentration of […] increased eosinophil chemokinesis by 6-fold compared to cells treated with vehicle only (FIG. 3). PGD2 at concentrations of 10 nM and 1 μM increased eosinophil chemokinesis by a factor of 5 and 9-fold respectively (data not shown).

eosinophils = assay: Eosinophil chemotaxis (agent in the bottom chamber of the chemotactic unit); type: cell-based, human; conditions: data not shown
Method: Chemotaxis was measured by adding PGD2 to the bottom chamber of a chemotactic unit containing eosinophils in the top chamber.

[5] = 15 minutes, FIG. 2: DK-PGD2 10 nM, PAF 100 nM, IL-5 1 ng/ml

Molecule: O=C(O)CCCCCCC1C(=O)NC(=O)N1CCC(O)C1CCCCC1 (stereo not drawn) [BW245C]
- release of ECP from eosinophils (result in words) ([1]; 1 hour): not BW245C, significantly increased the release of ECP
- increase in the percentage of non-apoptotic eosinophil ([2]; BW245C 1 μM, 36 hours, over vehicle treated population, 9 donors): 17%
- change in eosinophil morphology ([3]; concentrations as high as 1 μM, panel 2c): did not affect eosinophil shape
- stimulation of eosinophil chemokinesis (result in words) [4]: not BW245C was effective in stimulating eosinophil chemokinesis

Molecule: CCCCC[C@H](O)/C=C/[C@H]1[C@H](O)CC(=O)[C@@H]1C/C=C\CCCC(=O)O [PGE2]
- effect on eosinophil apoptosis / percentage of non-apoptotic eosinophils (result in words) [2]: increased the percentage of non-apoptotic eosinophils
- change in eosinophil morphology ([3]; μM doses, data not shown): did not cause, even at μM doses, any alterations of eosinophil morphology
- stimulation of eosinophil chemokinesis (result in words) [4]: failed to modulate eosinophil migration

Molecule: CC(C)OC(=O)CCC/C=C\C[C@@H]1[C@@H](CC[C@@H](O)CCc2ccccc2)[C@H](O)C[C@@H]1O [latanoprost]
- effect on eosinophil apoptosis / percentage of non-apoptotic eosinophils (result in words) [2]: not significant
- change in eosinophil morphology ([3]; μM doses, data not shown): did not cause, even at μM doses, any alterations of eosinophil morphology
- stimulation of eosinophil chemokinesis (result in words) [4]: failed to modulate eosinophil migration

Molecule: CCCCC[C@H](O)/C=C/[C@H]1C(=O)C[C@H](O)[C@@H]1C/C=C\CCCC(=O)O [PGD2, Prostanglandin D2]
- release of ECP from eosinophils into the media ([1]; 10 to 100 nM, 1 hour, FIG. 4): significantly increased the release of ECP
- release of the granular protein EDN from eosinophils ([1]; after PGD2 challenge, data not shown): observed the release from eosinophils of another granular protein, EDN
- extent of ECP release relative to PAF ([1]; average over donors): about half that seen with PAF
- effect on eosinophil apoptosis / percentage of non-apoptotic eosinophils (result in words) [2]: weak inhibitor of apoptotic cell death
- morphology change after a second PGD2 challenge ([3]; PGD2-treated eosinophils, data not shown): resistant to morphology changes after a second PGD2 challenge
- change in eosinophil morphology ([3]; PGD2 <10 nM, within minutes, n=20 donors): induced dramatic changes in cell morphology
- reversion of treated eosinophils to spherical shape ([3]; after PGD2 treatment): reverted to a spherical shape within six hours
- increase in eosinophil chemokinesis ([4]; 10 nM): 5 fold
- increase in eosinophil chemokinesis ([4]; 1 μM): 9 fold
- increase in eosinophil chemokinesis compared to cells treated with vehicle only ([4]; 100 mM (so in the source), 5 minutes pre-treatment, 2 hours migration, FIG. 3): 6 fold
- stimulation of eosinophil chemokinesis (result in words) [4]: increased cell motility in the absence of a chemical gradient
- chemotactic (chemoattractant) effect on eosinophils (eosinophils; PGD2 added to the bottom chamber): not observed to exert a chemotatic effect; also recorded: did not attract eosinophils to the lower chamber
- chemotactic response of pre-incubated eosinophils to PAF or eotaxin (eosinophils; pre-incubation up to 1 μM for 5 minutes to 18 hours): did not have an altered chemotactic response

Molecule: Il-5: Recombinant human interleukin-5 produced using a baculovirus system and purified by FPLC
- effect on eosinophil apoptosis / percentage of non-apoptotic eosinophils (result in words) [2]: increased the percentage of non-apoptotic eosinophils
- change in eosinophil morphology [3, 5]: lead to a rapid change in eosinophil morphology
- stimulation of eosinophil chemokinesis (result in words) [4]: able to stimulate eosinophil chemokinesis

Molecule: O=C(O)CCC/C=C\C[C@@H]1[C@@H](/C=C/[C@@H](O)COc2cccc(C(F)(F)F)c2)[C@H](O)C[C@@H]1O (racemic) [fluprostenol]
- effect on eosinophil apoptosis / percentage of non-apoptotic eosinophils (result in words) [2]: not significant
- change in eosinophil morphology ([3]; μM doses, data not shown): did not cause, even at μM doses, any alterations of eosinophil morphology
- stimulation of eosinophil chemokinesis (result in words) [4]: failed to modulate eosinophil migration

Molecule: CCCCCC(=O)CCC1C(=O)CC(O)C1C/C=C\CCCC(=O)O (stereo not drawn) [DK-PGD2, 13,14-dihydro-15-keto-PGD2]
- release of ECP from eosinophils (result in words) ([1]; 1 hour): significantly increased the release of ECP
- effect on eosinophil apoptosis / percentage of non-apoptotic eosinophils (result in words) [2]: no significant effect
- change in eosinophil morphology [3, 5]: induced a morphological change identical to that observed with PGD2
- stimulation of eosinophil chemokinesis (result in words) [4]: effective in stimulating eosinophil chemokinesis
